How the values were obtained:
[1] = test system: HL-60(TB); assay: Growth inhibition of human HL-60(TB) cells incubated for 48 hrs by sulforhodamine B assay; assay type: functional, cell-based; details: HL-60, 48 h
[2] = test system: SK-MEL-2; assay: Growth inhibition of human SK-MEL-2 cells assessed as cell growth at 10 uM incubated for 48 hrs by sulforhodamine B assay relative to control; assay type: functional; details: SK-MEL-2, 48 h, read-out: Activity
[3] = test system: SK-MEL-2; assay: Growth inhibition of human SK-MEL-2 cells incubated for 48 hrs by sulforhodamine B assay; assay type: functional, cell-based; details: SK-MEL-2, 48 h
[4] = test system: HOP-62; assay: Growth inhibition of human HOP62 cells assessed as cell growth at 1 uM incubated for 48 hrs by sulforhodamine B assay relative to control; assay type: functional; details: HOP-62, 48 h, read-out: Activity
[5] = test system: NCI-H226; assay: Growth inhibition of human NCI-H226 cells incubated for 48 hrs by sulforhodamine B assay; assay type: functional, cell-based; details: NCI-H226, 48 h
[6] = test system: RPMI-8226; assay: Growth inhibition of human RPMI8226 cells assessed as cell growth at 1 uM incubated for 48 hrs by sulforhodamine B assay relative to control; assay type: functional; details: RPMI-8226, 48 h, read-out: Activity
[7] = test system: RXF 393; assay: Growth inhibition of human RXF393 cells assessed as cell growth at 1 uM incubated for 48 hrs by sulforhodamine B assay relative to control; assay type: functional; details: RXF 393, 48 h, read-out: Activity
[8] = test system: SK-OV-3; assay: Growth inhibition of human SKOV3 cells assessed as cell growth at 1 uM incubated for 48 hrs by sulforhodamine B assay relative to control; assay type: functional; details: SK-OV-3, 48 h, read-out: Activity
[9] = test system: NCI-H23; assay: Growth inhibition of human NCI-H23 cells assessed as cell growth at 0.1 uM incubated for 48 hrs by sulforhodamine B assay relative to control; assay type: functional; details: NCI-H23, 48 h, read-out: Activity
[10] = test system: OVCAR-8; assay: Growth inhibition of human OVCAR8 cells assessed as cell growth at 1 uM incubated for 48 hrs by sulforhodamine B assay relative to control; assay type: functional; details: OVCAR-8, 48 h, read-out: Activity
[11] = test system: CCRF-CEM; assay: Growth inhibition of human CCRF-CEM cells assessed as cell growth at 1 uM incubated for 48 hrs by sulforhodamine B assay relative to control; assay type: functional; details: read-out: Activity
[12] = test system: MOLT-4; assay: Growth inhibition of human MOLT4 cells incubated for 48 hrs by sulforhodamine B assay; assay type: functional, cell-based; details: MOLT-4, 48 h
[13] = test system: Hs-578T; assay: Growth inhibition of human Hs578T cells assessed as cell growth at 100 uM incubated for 48 hrs by sulforhodamine B assay relative to control; assay type: functional; details: read-out: Activity
[14] = test system: Hs-578T; assay: Growth inhibition of human Hs578T cells incubated for 48 hrs by sulforhodamine B assay; assay type: functional, cell-based
[15] = test system: SF-268; assay: Growth inhibition of human SF268 cells assessed as cell growth at 1 uM incubated for 48 hrs by sulforhodamine B assay relative to control; assay type: functional; details: SF-268, 48 h, read-out: Activity
[16] = test system: SNB-75; assay: Growth inhibition of human SNB75 cells assessed as cell growth at 0.01 uM incubated for 48 hrs by sulforhodamine B assay relative to control; assay type: functional; details: SNB-75, 48 h, read-out: Activity
[17] = test system: MDA-MB-435; assay: Growth inhibition of human MDA-MB-435 cells incubated for 48 hrs by sulforhodamine B assay; assay type: functional, cell-based; details: MDA-MB-435, 48 h
[18] = test system: UACC-257; assay: Growth inhibition of human UACC257 cells assessed as cell growth at 1 uM incubated for 48 hrs by sulforhodamine B assay relative to control; assay type: functional; details: UACC-257, 48 h, read-out: Activity
[19] = test system: COLO 205; assay: Growth inhibition of human COLO205 cells assessed as cell growth at 0.01 uM incubated for 48 hrs by sulforhodamine B assay relative to control; assay type: functional; details: COLO 205, 48 h, read-out: Activity
[20] = test system: U-251; assay: Growth inhibition of human U251 cells assessed as cell growth at 0.01 uM incubated for 48 hrs by sulforhodamine B assay relative to control; assay type: functional; details: U-251, 48 h, read-out: Activity
[21] = test system: K562; assay: Growth inhibition of human K562 cells assessed as cell growth at 0.1 uM incubated for 48 hrs by sulforhodamine B assay relative to control; assay type: functional; details: K562, 48 h, read-out: Activity
[22] = test system: SNB-19; assay: Growth inhibition of human SNB19 cells assessed as cell growth at 100 uM incubated for 48 hrs by sulforhodamine B assay relative to control; assay type: functional; details: SNB-19, 48 h, read-out: Activity
[23] = test system: Hs-578T; assay: Growth inhibition of human Hs578T cells assessed as cell growth at 0.01 uM incubated for 48 hrs by sulforhodamine B assay relative to control; assay type: functional; details: read-out: Activity
[24] = test system: A549; assay: Growth inhibition of human A549/ATCC cells assessed as cell growth at 0.1 uM incubated for 48 hrs by sulforhodamine B assay relative to control; assay type: functional; details: A549, 48 h, read-out: Activity
[25] = test system: HT-29; assay: Growth inhibition of human HT-29 cells incubated for 48 hrs by sulforhodamine B assay; assay type: functional, cell-based; details: HT-29, 48 h
[26] = test system: SF-268; assay: Growth inhibition of human SF268 cells incubated for 48 hrs by sulforhodamine B assay; assay type: functional, cell-based; details: SF-268, 48 h
[27] = test system: A498; assay: Growth inhibition of human A498 cells assessed as cell growth at 1 uM incubated for 48 hrs by sulforhodamine B assay relative to control; assay type: functional; details: A498, 48 h, read-out: Activity
[28] = test system: A549; assay: Growth inhibition of human A549/ATCC cells assessed as cell growth at 100 uM incubated for 48 hrs by sulforhodamine B assay relative to control; assay type: functional; details: A549, 48 h, read-out: Activity
[29] = read-out: LC50 (the source's name)
[30] = read-out: pLC50 (the source's name) (converted)

## O=C(Nc1cccc(-n2cc(-c3ccncc3)c(-c3cc(O)cc(Cl)c3)n2)c1)c1ccc(N2CCOCC2)c(C(F)(F)F)c1
[1]; read-out: GI50
  GI50: 0.81 µM
[1]; read-out: LC50
  LC50: > 100 µM
[1]; read-out: TGI
  TGI: 30.4 µM
[1]; read-out: pGI50 (converted)
  GI50: 0.813 µM
[1]; read-out: pLC50 (converted)
  LC50: > 100 µM
[1]; read-out: pTGI (converted)
  TGI: 3.02 µM
[2]
  growth at 10 µM: 22.9%
[3]; read-out: GI50
  GI50: 2.34 µM
[3]; [29]
  CC50: > 100 µM
[3]; read-out: TGI
  TGI: 13.2 µM
[3]; read-out: pGI50 (converted)
  GI50: 2.34 µM
[3]; [30]
  CC50: > 100 µM
[3]; read-out: pTGI (converted)
  TGI: 13.2 µM
[4]
  growth at 1 µM: 85%
[5]; read-out: GI50
  GI50: 2.56 µM
[5]; read-out: LC50
  LC50: > 100 µM
[5]; read-out: TGI
  TGI: > 100 µM
[5]; read-out: pGI50 (converted)
  GI50: 28.8 µM
[5]; read-out: pLC50 (converted)
  LC50: > 100 µM
[5]; read-out: pTGI (converted)
  TGI: > 100 µM
[6]
  growth at 1 µM: 17%
[7]
  growth at 1 µM: 13%
[8]
  growth at 1 µM: 95%
[9]
  growth at 0.1 µM: 104%
[10]
  growth at 1 µM: 57%
[11]
  growth at 1 µM: 34%
[12]; read-out: GI50
  GI50: 1.11 µM
[12]; [29]
  CC50: > 100 µM
[12]; read-out: TGI
  TGI: 43.6 µM
[12]; read-out: pGI50 (converted)
  GI50: 1.12 µM
[12]; [30]
  CC50: > 100 µM
[12]; read-out: pTGI (converted)
  TGI: 4.47 µM
[13]
  growth at 100 µM: 30%
[14]; read-out: GI50
  GI50: 2.94 µM
[14]; [29]
  CC50: > 100 µM
[14]; read-out: TGI
  TGI: > 100 µM
[14]; read-out: pGI50 (converted)
  GI50: 2.95 µM
[14]; [30]
  CC50: > 100 µM
[14]; read-out: pTGI (converted)
  TGI: > 100 µM
[15]
  growth at 1 µM: 89%
[16]
  growth at 0.01 µM: 57%
[17]; read-out: GI50
  GI50: 2 µM
[17]; read-out: LC50
  LC50: > 100 µM
[17]; read-out: TGI
  TGI: > 100 µM
[17]; read-out: pGI50 (converted)
  GI50: 2.04 µM
[17]; read-out: pLC50 (converted)
  LC50: > 100 µM
[17]; read-out: pTGI (converted)
  TGI: > 100 µM
[18]
  growth at 1 µM: 54%
[19]
  growth at 0.01 µM: 106%
[20]
  growth at 0.01 µM: 97%
[21]
  growth at 0.1 µM: 100%
[22]
  growth at 100 µM: -12%
[23]
  growth at 0.01 µM: 96%
[24]
  growth at 0.1 µM: 97%
[25]; read-out: GI50
  GI50: 3.03 µM
[25]; [29]
  CC50: > 100 µM
[25]; read-out: TGI
  TGI: 11.3 µM
[25]; read-out: pGI50 (converted)
  GI50: 3.02 µM
[25]; [30]
  CC50: > 100 µM
[25]; read-out: pTGI (converted)
  TGI: 11.2 µM
[26]; read-out: GI50
  GI50: 5.51 µM
[26]; [29]
  CC50: > 100 µM
[26]; read-out: TGI
  TGI: > 100 µM
[26]; read-out: pGI50 (converted)
  GI50: 8.51 µM
[26]; [30]
  CC50: > 100 µM
[26]; read-out: pTGI (converted)
  TGI: > 100 µM
[27]
  growth at 1 µM: 98%
[28]
  growth at 100 µM: -14%
